Test results reported in patent publication US11667602B2, “Compounds and their use” (AstraZeneca AB, priority 2020, dated 2023).
≈ marks a conversion by molar mass, not a printed value.

Key:
[1] = cited from earlier work
Solubility (Test F) = assay type: physicochemical; details: arithmetic mean if run multiple times
Procedure: The assay was conducted according to the Solubility Assay described in pages 164-167 of Wernevik, J. et al., “A Fully Integrated Assay Panel for Early Drug Metabolism and Pharmacokinetics Profiling”, Assay and Drug Development Technologies, 2020, 18(4), 157-179. Data are reported in Table 36 as solubility ([…]. Where the assay was run multiple times for the same compound, the arithmetic mean is reported.

[2] = Human Plasma Protein Binding (Test B); assay type: in vitro ADME; details: fraction unbound (fu)
How it was run: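 Human plasma protein binding run per the published Wernevik et al. (2020) integrated DMPK panel protocol. Values are fraction unbound (fu, % free); repeat runs averaged arithmetically.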

human RXFP1 = molecular target: T1, human RXFP1 (Homo sapiens, UniProt Q9HBX9); experiment: RXFP1 Hu cAMP (Test A); assay type: cell-based; design: expressed in transfected cells; host or cells: Jump-In T-REx CHO-K1 cells (ThermoFisher), induced with 10 ng/ml doxycycline for 24 h; details: RXFP1 Hu cAMP; for EC50: read-out: Test A EC50
T1 sequence (Q9HBX9 1-757): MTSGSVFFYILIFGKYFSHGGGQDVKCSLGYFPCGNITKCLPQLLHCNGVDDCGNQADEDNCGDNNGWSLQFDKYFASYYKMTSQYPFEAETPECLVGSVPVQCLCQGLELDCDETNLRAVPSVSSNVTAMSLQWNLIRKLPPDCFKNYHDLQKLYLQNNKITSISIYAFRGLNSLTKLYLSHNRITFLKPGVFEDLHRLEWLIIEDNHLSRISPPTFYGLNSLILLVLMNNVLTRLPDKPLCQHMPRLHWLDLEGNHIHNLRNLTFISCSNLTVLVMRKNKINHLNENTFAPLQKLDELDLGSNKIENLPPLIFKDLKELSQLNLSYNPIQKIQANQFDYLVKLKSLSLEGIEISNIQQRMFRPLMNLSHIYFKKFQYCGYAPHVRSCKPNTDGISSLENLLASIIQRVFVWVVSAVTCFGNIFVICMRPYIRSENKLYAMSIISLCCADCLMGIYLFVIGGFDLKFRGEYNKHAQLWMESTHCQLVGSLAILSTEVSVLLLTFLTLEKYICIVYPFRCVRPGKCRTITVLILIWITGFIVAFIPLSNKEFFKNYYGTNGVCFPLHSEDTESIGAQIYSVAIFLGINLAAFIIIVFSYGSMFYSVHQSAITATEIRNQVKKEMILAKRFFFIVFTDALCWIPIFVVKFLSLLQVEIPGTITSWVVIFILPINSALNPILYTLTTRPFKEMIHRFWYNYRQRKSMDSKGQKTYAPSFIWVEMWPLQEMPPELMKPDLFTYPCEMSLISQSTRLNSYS
How it was run: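 Read-out is HTRF signal, inversely proportional to cAMP, converted to cAMP amount by standard curve. Stimulation occurred in inducible CHO-K1 cells expressing the human receptor with phosphodiesterases blocked by 0.5 mM IBMX.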

[3] = Human Liver Microsomal Stability (Test C); assay type: in vitro ADME; details: human, liver microsomes
How it was run: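 Human liver microsome incubation per the Wernevik et al. integrated DMPK panel protocol. Intrinsic clearance reported as CLint in μl/min/mg protein, averaged arithmetically over repeat runs.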

[4] = Rat Hepatocyte Stability (Test E); assay type: in vitro ADME; details: rat, hepatocytes, geometric mean if run multiple times
How it was run: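 Run per the published AstraZeneca-type rat hepatocyte stability protocol (Wernevik et al. panel). Values are mean intrinsic clearance, Clint in μl/min/10^6 cells; geometric mean used for repeated runs.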

[5] = Human Hepatocyte Stability (Test D); assay type: in vitro ADME; details: human, cryopreserved pooled human hepatocytes (LiverPool 10-Donor), geometric mean if run multiple times
How it was run: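 Pooled 10-donor cryopreserved human hepatocytes (≥80% viable) in L-15 medium at 0.25×10^6 cells per 0.25 mL well. Compound added from 100 μM acetonitrile solution; incubated at 37 °C with shaking, acetonitrile-quenched, LC-MS analysed. Clint (μL/min/10^6 cells) from ln % parent vs time slope; geometric mean of repeat runs.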

solubility (Solubility (Test F)) | Test B Human Plasma Protein Binding (% free) [2] | Test A Sinf (human RXFP1) | EC50 (human RXFP1) | microsomal CLint [3] | hepatocyte CLint [4] | hepatocyte CLint at 1 µM [5] | Compound | significant blood pressure drop ([1]; approximately one third of the patients, after receiving serelaxin intravenously) | markers of cardiac, renal and hepatic damage and congestion ([1]; continuous intravenous administration to hospitalized patients) | clearance from the patients' circulation ([1]; patients, positive effects rapidly disappeared once intravenous injection stopped)
21 µM (≈ 13.9 µg/mL) | 5 % free | 91% | 640 nM | 47 µL/min/mg | 16 µL/min/1e6 cells | 16 µL/min/1e6 cells | COc1cc(F)c(O[C@H]2CC[C@@](C)(C(=O)O)CC2)cc1C(=O)N[C@@H]1[C@H](O)CC[C@@H]1C(=O)Nc1cccc(S(=O)(=O)C(F)(F)F)c1 (racemic) [Example 396, (1R,4s)-4-(2-Fluoro-5-(((1SR,2RS,5SR)-2-hydroxy-5-((3-((trifluoromethyl)sulfonyl)phenyl)carbamoyl)cyclopentyl)carbamoyl)-4-methoxyphenoxy)-1-methylcyclohexane-1-carboxylic acid] |  |  | 
> 1000 µM | 15 % free | 101% | 100 nM | 8.4 µL/min/mg | 17 µL/min/1e6 cells | 3.6 µL/min/1e6 cells | COc1cc(C#N)c(O[C@H]2CC[C@@](C)(C(=O)O)CC2)cc1C(=O)N[C@@H]1CCC[C@@H]1C(=O)NCC1(C)CCC1 [Example 360] |  |  | 
1000 µM (≈ 667 µg/mL) | 0.13 % free | 115% | < 3.6 nM | 23 µL/min/mg | 22 µL/min/1e6 cells | 12 µL/min/1e6 cells | COc1cc(F)c(O[C@H]2CC[C@@H](C(=O)O)CC2)cc1C(=O)N[C@H]1[C@@H](C(=O)Nc2ccc(F)c(S(F)(F)(F)(F)F)c2)[C@@H]2C=C[C@H]1C2 [Example 488, (1S,4s)-4-(2-fluoro-5-(((1R,2R,3S,4S)-3-((4-fluoro-3-(pentafluoro-λ6-sulfaneyl)phenyl)carbamoyl)bicyclo[2.2.1]hept-5-en-2-yl)carbamoyl)-4-methoxyphenoxy)cyclohexane-1-carboxylic acid] |  |  | 

Second part, the compound before the results:

Compound | solubility (Solubility (Test F)) | Test B Human Plasma Protein Binding (% free) [2] | Test A Sinf (human RXFP1) | EC50 (human RXFP1) | microsomal CLint [3] | hepatocyte CLint [4] | hepatocyte CLint at 1 µM [5] | significant blood pressure drop ([1]; approximately one third of the patients, after receiving serelaxin intravenously) | markers of cardiac, renal and hepatic damage and congestion ([1]; continuous intravenous administration to hospitalized patients) | clearance from the patients' circulation ([1]; patients, positive effects rapidly disappeared once intravenous injection stopped)
serelaxin |  |  |  |  |  |  |  | > 40 mm Hg | improved | rapid clearance
COc1cc(F)c(-c2ccc(C(=O)O)cc2)cc1C(=O)N[C@H]1[C@@H](C(=O)Nc2ccc(F)c(S(=O)(=O)C(F)(F)F)c2)[C@@H]2C=C[C@H]1C2 (racemic) [Example 296, rac-2′-Fluoro-5′-(((1R,2R,3S,4S)-3-((4-fluoro-3-((trifluoromethyl)sulfonyl)phenyl)carbamoyl)bicyclo[2.2.1]hept-5-en-2-yl)carbamoyl)-4′-methoxy-[1,1′-biphenyl]-4-carboxylic acid] | 640 µM (≈ 416 µg/mL) | <0.32 % free | 98% | 220 nM | 15 µL/min/mg | 17 µL/min/1e6 cells | 22 µL/min/1e6 cells |  |  | 
CCC(CC)CNC(=O)[C@H]1[C@@H]2CC[C@@H](C2)[C@H]1NC(=O)c1cc(OC2CCC(C)(C(=O)O)CC2)c(F)cc1OC (stereo partly shown) [Example 43] | 770 µM (≈ 421 µg/mL) | 1.3 % free | 106% | 83 nM | 33 µL/min/mg | 25 µL/min/1e6 cells | 5 µL/min/1e6 cells |  |  | 
COc1cc(F)c(-c2ccc(C(=O)O)cc2)cc1C(=O)N[C@H]1[C@@H]2CC[C@@H](C2)[C@H]1C(=O)Nc1ccc(F)c(C(F)(F)F)c1 (single isomer, unassigned) [Example 591] | > 1000 µM | <0.36 % free | 111% |  | 19 µL/min/mg | 28 µL/min/1e6 cells | 140 µL/min/1e6 cells |  |  | 
COc1cc(Cl)c(O[C@H]2CC[C@@](C)(C(=O)O)CC2)cc1C(=O)N[C@@H]1[C@H]2CC[C@H](C2)[C@@H]1C(=O)NC12CC(F)(C1)C2 [Example 411] | 710 µM (≈ 400 µg/mL) | 1.8 % free | 108% | 24 nM | 7.9 µL/min/mg | 17 µL/min/1e6 cells | 2.1 µL/min/1e6 cells |  |  | 
COc1cc(F)c(O[C@H]2CC[C@@](C)(C(=O)O)CC2)cc1C(=O)NC1C2CCC(C2)C1C(=O)Nc1cccc(S(=O)(=O)C(F)(F)F)c1 (single isomer, unassigned) [Example 586, (1R,4s)-4-(2-Fluoro-4-methoxy-5-(((1S*,2S*,3R*,4R*)-3-((3-((trifluoromethyl)sulfonyl)phenyl)carbamoyl)bicyclo[2.2.1]heptan-2-yl)carbamoyl)phenoxy)-1-methylcyclohexane-1-carboxylic acid] | 190 µM (≈ 127 µg/mL) | 0.33 % free | 105% | 1.5 nM | 12 µL/min/mg | 17 µL/min/1e6 cells | 4.3 µL/min/1e6 cells |  |  | 
